# Data as given in patent publication US20080248024A1, “THERAPEUTIC AGENT FOR CANCER, INFLAMMATION, AND AUTO-IMMUNE DISEASE CONTAINING INHIBITOR OF ZINC FINGER PROTEIN 91” (Korea Research Institute of Bioscience and Biotechnology, priority 2007, published 2008).
# Entries after “also recorded” stand apart in the source; their conditions may differ. Like-named read-outs stand apart in the source and are kept apart here.
# What was measured:
# ZFP91 promoter = ZFP91 promoter luciferase reporter assay (pGL3-ZFP91prom-LUC); type: cell-based, human
# ZFP91 [1] = experiment: ZFP91 expression in MCF-7 treated with NF-κB activators; type: cell-based, human; details: TNF-α 20 ng/ml, PMA 20 ng/ml, IL1-β 20 ng/ml, H2O2 1 mM, 0, 3, 6, 14, 24 hours
# Procedure: To examine whether ZFP91 expression was regulated by NF-κB, the breast cancer cell line MCF-7 was treated with the NF-κB activators, TNF-α (20 ng/ml), PMA (20 ng/ml), IL1-β (20 ng/ml) and H2O2 (1 mM) for 0, 3, 6, 14, and 24 hours. After 0, 3, 6, 14, and 24 hours from the treatment, poly(A)^+ RNA was extracted, followed by Northern blotting. The probe used for Northern blotting was prepared as follows; TOPO cloning vector inserted with ZFP91 was digested with EcoRI and the insert alone was used after random prime labeling with [α-^32P]dCTP. ZFP91 expressions over the time were investigated. […] The NF-κB activators p65, IKKα, IKKβ, and NIK were expressed in MCF-7 cells. 48 hours later, ZFP91 expressions in the cells were investigated.
# [2] = test system: PTPN11, SPIN, ECT2, EWSR1, MLLT4, MAGEA4, TNFAIP3 and ZFP91; experiment: RT-PCR of candidate genes regulated by kamebakaurin; type: cell-based, human; details: kamebakaurin 10 μg/ml, 5 hours, MDA-MB-231 cells
# Procedure: A human breast cancer cell line MDA-MB-231 cells was treated with DMSO and kamebakaurin (10 μg/ml) respectively, followed by culture for 5 hours. The cells were washed with cold PBS three times, and then total RNA was extracted by using RNeasy Mini kits (Qiagen, Santa Clarita, Calif., USA) 5 μg of the total RNA was used for the synthesis of cDNA using Invitrogen kit Access RT-PCR Kit (Promega, Madison, Wis., U.S.A.). The ZFP91 specific primer was constructed based on the nucleotide sequence of Genebank (Accession No. NM-053023). Each candidate gene specific primer was constructed based on the informed nucleotide sequences (Table 1). PCR was performed with prepared cDNA as follows: predenaturation at 95° C. for 5 minutes, denaturation at 94° C. for 1 minute, annealing at 50° C.-60° C. for 2 minutes, polymerization at 70° C. for 1 minute, 30 cycles from denaturation to polymerization. The gene-specific PCR products proceeded to electrophoresis on 1% agarose gel, followed by EtBr staining (FIG. 1).
# [3] = test system: MAGEA4, TNFAIP3 and ZFP91; experiment: Northern blotting of candidate genes regulated by kamebakaurin; type: cell-based, human; details: kamebakaurin 10 μg/ml, 5 hours, MDA-MB-231 cells
# Procedure: MDA-MB-231 cells were treated with DMSO and kamebakaurin (10 μg/ml), followed by culture for 5 hours. The cells were washed with cold PBS three times, and poly(A)^+ RNA was extracted by using FastTrack 2.0 kit (Invitrogen). 2 μg of the extracted poly (A)^+ RNA was eletrohporesed on 1% agarose-formaldehyde gel, which was transferred onto a nylon membrane (Roche, Mannheim, Germany). To investigate the expressions of selected candidate genes, the PCR product was purified by using Wizard PCR PrepsDNA Purification Systems (Promega Corporation, Madison, Wis., U.S.A.) and then used as a probe. Each probe was labeled with [α-^32P]dCTP using Rediprime™ II random prime labeling system (Amersham Biosciences). Non-incorporated ^32P was removed by using spin column (ProbeQuant™ G-50 Micro Columns; Amersham Biosciences). The prepared cDNA was used as a probe for hybridization with the membrane. After the hybridization, the membrane was washed with 2×SSC/0.1% SDS, which was exposed on X-ray film at −80° C. with intensifying screen.
# MDA-MB-435 [4] = experiment: MDA-MB-435 xenograft tumor growth in nude mice; type: in vivo; details: 15 mg/kg into the abdominal cavity every other day, 12 times
# Procedure: (§1) The human breast cancer cell line MDA-MB-435 was transplanted in the glandular fatty tissues of nude mice (Charles River Laboratory, Wilmington, Mass., USA) at 5 weeks (1×10^6 cells/mouse). 12 days later, the nude mice having tumor were grouped by 8. Kamebakaurin dissolved in 0.5% Tween 80 was administered into the abdominal cavity every other day at the concentrations of 1.5 and 15 mg/kg 12 times in total. The tumor size was measured for 23 days after the transplantation. The tumor size was calculated by “width 2 (square)×[…]/2=tumor volume (mm^3)”.
# MDA-MB-435 [5] = experiment: MDA-MB-435 xenograft metastasis to the lung in nude mice; type: in vivo; details: for Frequency (metastatic mice/total mice) / Minimum metastasis number-maximum metastasis number / number of metastasis in lung (median value) / Mean number of metastasis in lung: 35 days after transplantation; for Mean number of metastasis in lung: colonies >diameter 2 mm
# Procedure: as §1
# After 35 days from the transplantation, the lung of the mouse was excised and washed with water and fixed in Bouin's solution (SIGMA). The colonies metastasized to the surface of the lung (>diameter 2 mm) were counted under microscope and the mean values are shown in Table 2.
# HIF-1α = HIF-1α expression induced under 1% oxygen in AGS cells expressing ZFP91; details: AGS cells expressing ZFP91, 1% oxygen
# ZFP91 [6] = experiment: TNF-α mediated ZFP91 expression in FLAG-ZFP91 expressing AGS cells, Western blotting; details: pre-treatment 30 minutes with KA 1, 10 ug/ml, celastrol 0.2, 2 ug/ml, parthenolide 0.5, 5 ug/ml, TNF-α 50 ng/ml 3 hours
# Procedure: TNF-α (50 ng/ml) was treated thereto for 3 hours. Then, cell lysate was obtained, followed by Western blot analysis using a mouse anti-FLAG antibody.
# FLAG-ZFP91 expressing AGS cells were pre-treated with the NF-κB inhibitors, kamebakaurin (KA), celastrol (Cel), parthenolide (PTN), for 30 minutes. TNF-α mediated ZFP91 expression was investigated by Western blotting using anti-ZFP91 antibody.
# ZFP91 [7] = experiment: ZFP91 expression after ZFP91 siRNA, Western blotting; type: cell-based, human; details: various cancer cells
# Excerpt: To investigate the effect of ZFP91 on HIF-1 activation, a human stomach cancer cell line, AGS cells and AGS cells transformed with ZFP91 were transfected with HRE dependent reporter plasmid. ZFP91 siRNA oligomers (SEQ. ID. NO: 1-NO: 4; siRNA sequences corresponding to amino terminal region ccaggtg gcattagtag tgaa, sense: r(AGG UGG CAU UAG UAG UGA A)dTdT, antisense: r(UUC ACU ACU AAU GCC ACC U)dGdG; produced by GIAGEN) were introduced into the above cell lines by using RANiFect Transfection reagent (QIAGEN, Germany).
# Particularly, After 24 hours incubation of 1×10^5 cells/well distributed in a 24-well plate. siRNA oligomer (3.8 ul of SIRNA oligomer: 1 ug) was introduced into the cells with 96.2 ul of medium or EC-R buffer and 6 ul of RNAiFect reagent (Quiagen) and then the plate was kept at room temperature for 10-15 minutes. During the incubation, the medium of 24-well plate was replaced with 300 μl of fresh medium and the mixture of siRNA oligomer and RNAiFect reagent was slowly added and carefully mixed. The reaction mixture was incubated for 24 hours under normoxic condition, and then further cultured for another 24 hours in an incubator in the presence of 1% oxygen. Some of extracts of the cells proceeded to luciferase assay and HIF-1 induced luciferase activity was measured. […]
# [8] = ZFP91 promoter containing both KB1 and KB2
compound,measurement,setting,value
[Cl-].[Cl-].[Co+2] [CoCl2],ZFP91 promoter activity,ZFP91 promoter,significantly increased
OO [H2O2],ZFP91 promoter activity,ZFP91 promoter; stomach cancer cell line transfected with pGL3-ZFP91prom-LUC,significantly increased
same,ZFP91 at mRNA level,ZFP91 [1],not much increased
same,ZFP91 at protein level,ZFP91 [1],significantly increased time-dependently
CCCCCCCCCCCCCC(=O)O[C@@H]1[C@@H](C)[C@@]2(O)[C@@H](C=C(CO)C[C@]3(O)C(=O)C(C)=C[C@@H]23)[C@@H]2C(C)(C)[C@]12OC(C)=O [PMA],ZFP91 promoter activity,ZFP91 promoter; [8],induced
same,ZFP91 at mRNA level,ZFP91 [1],not much increased
same,ZFP91 at protein level,ZFP91 [1],significantly increased time-dependently
"C=C1C(=O)[C@@]23[C@H](O)C[C@@H]4C(C)(C)CC[C@H](O)[C@@]4(CO)[C@@H]2CC[C@@H]1[C@H]3O [kamebakaurin, Kamebakaurin]","expression of PTPN11, SPIN, ECT2, EWSR1, MLLT4, MAGEA4, TNFAIP3 and ZFP91 (RT-PCR)",[2],down-regulated by at least two times
same,"expression levels of MAGEA4, TNFAIP3 and ZFP91 (Northern blotting) vs KA-non-treated control",[3],significantly different
same,tumor growth,MDA-MB-435 [4],significantly inhibited
same,Frequency (metastatic mice/total mice),MDA-MB-435 [5]; 1.5 mg/kg,6/8
same,Minimum metastasis number-maximum metastasis number,MDA-MB-435 [5]; 1.5 mg/kg,(0-6)
same,number of metastasis in lung (median value),MDA-MB-435 [5]; 1.5 mg/kg,3
same,Mean number of metastasis in lung,MDA-MB-435 [5]; 1.5 mg/kg,3.3
same,Frequency (metastatic mice/total mice),MDA-MB-435 [5]; 15 mg/kg,6/8
same,Minimum metastasis number-maximum metastasis number,MDA-MB-435 [5]; 15 mg/kg,(0-4)
same,number of metastasis in lung (median value),MDA-MB-435 [5]; 15 mg/kg,2
same,Mean number of metastasis in lung,MDA-MB-435 [5]; 15 mg/kg,1.8
same,metastasis to the lung,"MDA-MB-435 [5]; 15 mg/kg, nude mice, MDA-MB-435",significantly inhibited
same,HIF-1α expression / accumulation,HIF-1α,suppressed; also recorded: inhibited; also recorded: significantly reduced
same,TNF-α mediated ZFP91 expression,ZFP91 [6],suppressed; also recorded: inhibited
"IL-1β: pro-inflammatory cytokine, NF-κB activator",ZFP91 promoter activity,ZFP91 promoter; [8],induced
same,ZFP91 at mRNA level,ZFP91 [1],not much increased
same,ZFP91 at protein level,ZFP91 [1],significantly increased time-dependently
TNF-α,ZFP91 promoter activity,ZFP91 promoter; [8],induced
same,ZFP91 at mRNA level,ZFP91 [1],not much increased
same,ZFP91 at protein level,ZFP91 [1],significantly increased time-dependently
"ZFP91 siRNA 1: siRNA corresponding to the nucleotide sequence 710-730 (NCBI, NM-053023) of ZFP91, SEQ. ID. NO: 1 and NO: 2 (chain 1 GGCAUUAGUAGUGAA; chain 2 UUCACUACUAAUGCCACCU; listed as RNA, chemistry not fully specified)",ZFP91 expression,ZFP91 [7],Suppression
"ZFP91 siRNA 2: siRNA corresponding to nucleotides 2261-2279 of 3′ untranslated region of ZFP91, SEQ. ID. NO: 3 and NO: 4 (chain 1 GCGGCACACUUAUCUUCAA; chain 2 UUGAAGAUAAGUGUGCCGC; listed as RNA, chemistry not given here)",ZFP91 expression,ZFP91 [7],Suppression
